Assay results taken from patent US12691112B2, “FGFR tyrosine kinase inhibitors for the treatment of urothelial carcinoma” (Janssen Pharmaceutica NV, priority 2019, dated 2026).
Read-outs that look alike come from different tables or passages of the source.

Test system: subjects with metastatic or surgically unresectable urothelial cancer
[1] = all-causality, 10 mg intermittent, n = 33
[2] = treatment-emergent, all-causality, 8 mg Continuous, Regimen 3 (n = 99)
[3] = treatment-related, 6 mg Continuous, Regimen 2 (n = 78)
[4] = treatment-related, 8 mg Continuous Erdafitinib, Regimen 3 (n = 99)
[5] = treatment-related, 10 mg Intermittent, Regimen 1 (n = 33)

COc1cc(OC)cc(N(CCNC(C)C)c2ccc3ncc(-c4cnn(C)c4)nc3c2)c1 [erdafitinib, N-(3,5-dimethoxy-phenyl)-N′-(1-methylethyl)-N-[3-(1-methyl-1H-pyrazol-4-yl)quinoxalin-6-yl]ethane-1,2-diamine]
Paronychia, grade 1 [1]: 0 no. | Paronychia, grade 2 [1]: 2 no. | Paronychia, grade ≥ 3 [1]: 0 no. | Peripheral edema, any grade [1]: 5 no. | Peripheral edema, grade 1 [1]: 1 no. | Peripheral edema, grade 2 [1]: 4 no. | Peripheral edema, grade ≥ 3 [1]: 0 no. | Pyrexia, any grade [1]: 5 no. | Pyrexia, grade 1 [1]: 5 no. | Pyrexia, grade 2 [1]: 0 no. | Pyrexia, grade ≥ 3 [1]: 0 no. | Retinal detachment, any grade [1]: 2 no. | Retinal detachment, grade 1 [1]: 1 no. | Retinal detachment, grade 2 [1]: 1 no. | Retinal detachment, grade ≥ 3 [1]: 0 no. | Stomatitis, any grade [1]: 16 no. | Stomatitis, grade 1 [1]: 9 no. | Stomatitis, grade 2 [1]: 6 no. | Stomatitis, grade ≥ 3 [1]: 1 no. | Urinary tract infection, any grade [1]: 4 no. | Urinary tract infection, grade 1 [1]: 0 no. | Urinary tract infection, grade 2 [1]: 2 no. | Urinary tract infection, grade ≥ 3 [1]: 2 no. | Vision blurred, any grade [1]: 5 no. | Vision blurred, grade 1 [1]: 4 no. | Vision blurred, grade 2 [1]: 1 no. | Vision blurred, grade ≥ 3 [1]: 0 no. | Vomiting, any grade [1]: 9 no. | Vomiting, grade 1 [1]: 7 no. | Vomiting, grade 2 [1]: 2 no. | Vomiting, grade ≥ 3 [1]: 0 no. | Weight decreased, any grade [1]: 3 no. | Weight decreased, grade 1 [1]: 1 no. | Weight decreased, grade 2 [1]: 2 no. | Weight decreased, grade ≥ 3 [1]: 0 no. | CSR leading to discontinuation (in vivo): three patients | discontinuation due to grade 1 hyperphosphatemia (in vivo): One patient discontinued treatment | normalization of phosphate elevation (in vivo): normalized by cycle 5 | retinal vein or artery occlusion (in vivo): no patient had retinal vein or artery occlusion | time of peak phosphate elevation after erdafitinib initiation (in vivo): 6 weeks | death as a result of an adverse event (myocardial infarction considered unrelated to treatment): One patient died as a result of an adverse event | patients with grade ≥3 treatment-emergent adverse events (overall trial population): 66% | some type of eye disorder, regardless of relation to treatment (patients overall): 54% | Patients with Alopecia, Grade ≥3 [2]: 0 no. | Patients with Decreased appetite, Grade ≥3 [2]: 0 no. | Patients with Dry mouth, Grade ≥3 [2]: 0 no. | Patients with Dry skin, Grade ≥3 [2]: 0 no. | Patients with Urinary tract infection, Grade 1 [2]: 0 no. | Patients with Vision blurred, Grade ≥3 [2]: 0 no. | Patients with Alopecia, Any grade [3]: 8 no. | Patients with Alopecia, Grade 2 [3]: 0 no. | Patients with Alopecia, Grade ≥3 [3]: 0 no. | Patients with Conjunctivitis, Grade 2 [3]: 0 no. | Patients with Conjunctivitis, Grade ≥3 [3]: 0 no. | Patients with Diarrhea, Grade ≥3 [3]: 0 no. | Patients with Dry skin, Grade ≥3 [3]: 0 no. | Patients with Dysgeusia, Grade ≥3 [3]: 0 no. | Patients with Hand-foot syndrome, Grade ≥3 [3]: 0 no. | Patients with Hyperphosphatemia, Grade ≥3 [3]: 0 no. | Patients with Lacrimation increased, Grade ≥3 [3]: 0 no. | Patients with Nausea, Grade ≥3 [3]: 0 no. | Patients with Onychomadesis, Grade ≥3 [3]: 0 no. | Patients with Paronychia, Grade ≥3 [3]: 0 no. | Patients with Retinal detachment, Grade ≥3 [3]: 0 no. | Patients with Arrhythmia-related events, Any grade [4]: 0 no. | Patients with Arrhythmia-related events, Grade ≥3 [4]: 0 no. | Patients with Alopecia, Grade ≥3 [5]: 0 no. | Patients with Conjunctivitis, Grade ≥3 [5]: 0 no. | Patients with Decreased appetite, Grade ≥3 [5]: 0 no. | Patients with Diarrhea, Grade 2 [5]: 5 no. | Patients with Dry mouth, Grade ≥3 [5]: 0 no. | Patients with Dry skin, Grade ≥3 [5]: 0 no. | Patients with Dysgeusia, Grade ≥3 [5]: 0 no. | Patients with Fatigue, Grade ≥3 [5]: 0 no. | Patients with Hand-foot syndrome, Grade 1 [5]: 0 no. | Patients with Hand-foot syndrome, Grade ≥3 [5]: 0 no. | Patients with Hyperphosphatemia, Grade ≥3 [5]: 0 no. | Patients with Lacrimation increased, Grade 2 [5]: 0 no. | Patients with Lacrimation increased, Grade ≥3 [5]: 0 no. | Patients with Nausea, Grade ≥3 [5]: 0 no. | Patients with Onychomadesis, Grade 2 [5]: 0 no. | Patients with Onychomadesis, Grade ≥3 [5]: 0 no. | Patients with Paronychia, Grade 1 [5]: 0 no. | Patients with Paronychia, Grade ≥3 [5]: 0 no. | Patients with Retinal detachment, Grade ≥3 [5]: 0 no. | Patients with Vision blurred, Grade ≥3 [5]: 0 no.
